Consider 2 compounds from patent US20220280507A1, “USES OF 5-METHYLTETRAHYDROFOLATE AND ITS COMPOSITION” (Lianyungang Jinkang Hexin Pharmaceutical Co., Ltd., priority 2019, published 2022).

Assay [1] concerns alcoholic liver damage and fatty liver. The experiment in a line: Alcoholic fatty liver model, serum TG, TC, SOD, MDA and liver histopathology. Format: in vivo, SD rats. The protocol: (§1) 96 SPF-grade SD rats were chosen in half female and half male with an average weight of 176-220 g at the beginning of the experiment. According to their weight, they were randomly divided into vehicle control group (purified water, ig), model control group (liquor, 10 ml·Kg−1), positive control group (bicyclol, 50 mg·Kg−1, ig), folic acid calcium salt high-dose group (4 mg·Kg−1), folic acid calcium salt medium-dose group (2 mg·Kg−1), folic acid calcium salt low-dose group (1 mg·Kg−1), in half female and half male, and 16 rats in each group. Purified water was used as a negative control, and bicyclol (place of origin: Beijing Xiehe Pharmaceutical Factory, specification: 25 mg/tablet, batch number: H20040467) was used as a positive control drug. Route of administration: all were administered by oral gavage. Dosage of administration: 1 mg·Kg−1, 2 mg·Kg−1, and 4 mg·Kg−1. Frequency of administration: once a day for 60 consecutive days. Erguotou (batch number: 201603092, specification: 2L, place of origin: Beijing Shunxin Agriculture Co., Ltd.) model establishing method: gavage with diluted 56-degree Erguotou twice a day for 60 consecutive days.
(§2) Method of administration: administration started at prescribed doses on the day of modeling for 60 consecutive days and ended at the 60th day. At the same time, rats in each group were weighed every other week during administration period to monitor their body weight changes. On the 61st day, rats were dissected and serum was collected for determination of triglyceride (TG), total cholesterol (TC), malondialdehyde (MDA), superoxide dismutase (SOD) and liver histopathologic examination. The brain tissue of rats was taken out, and hippocampus tissue was separated on ice plate, prepared to homogenate with a mass fraction of 10% with purified water, then the homogenate was centrifuged to obtain supernatant. ELISA was used to detect the levels of inflammatory factors TNF-α and IL-1β in hippocampus tissue with continuous spectrum scanning microplate reader.

Assay [2] concerns hyperlipemia rats. The experiment in a line: Hyperlipemia rats (high-fat diet), biochemical indexes TG, TC, SOD, MDA. Format: in vivo, SD rats. The settings on record: 50 mg·kg−1·d−1, 60 d. Here is the method:
(§3) Experiment 5 Effect of 5-Methyltetrahydrofolate Calcium on Hyperlipemia Rats
(§4) 7 weeks later, one rat in the control group and one rat in the model group were sacrificed for liver tissue section to check fatty degeneration of hepatocytes (see Table 7) to confirm whether modeling was successful. The remaining 40 modeling rats were randomly divided into low-dose (1 mg·Kg−1) group, medium-dose (2 mg·Kg−1) group, high-dose (4 mg·Kg−1) group, positive drug group, and model group.
(§5) Bicyclol (place of origin: Beijing Xiehe Pharmaceutical Factory, specification: 25 mg/tablet, batch number: H20040467) was used as a positive drug.
(§6) After successful modeling, rats were administered drugs with dosages as prescribed for 60 consecutive days, continued to be fed with high-fat diet, and dissected on the 61st day. Liver was harvested and weighed, liver index was calculated, right lobe tissue was taken to prepare frozen sections, and fat staining was performed with Sudan III for pathological scoring according to guidelines for diagnosis and treatment of NAFLD. Another liver tissue was taken to prepare homogenate, and total cholesterol (TC), triglyceride (TG), malondialdehyde (MDA), and superoxide dismutase (SOD) in serum were detected.

Assay [3] can be described thus: Alcoholic fatty liver model, body weight during administration period. In kind it is in vivo, SD rats. The settings on record: liquor model, 50 mg·kg−1·d−1 ig. Here is the method: as §1, with “According” for “96 SPF-grade SD rats were chosen in half female and half male with an average weight of 176-220 g at the beginning of the experiment. According”, “days.” for “days. Erguotou (batch number: 201603092, specification: 2L, place of origin: Beijing Shunxin Agriculture Co., Ltd.) model establishing method: gavage with diluted 56-degree Erguotou twice a day for 60 consecutive days.”
as §2

Assay [4] relates to TNF-α. The experiment in a line: Alcoholic fatty liver model, TNF-α in hippocampus tissue (ELISA). Format: in vivo, SD rats. As to conditions: liquor model, 50 mg·kg−1·d−1 ig 60 d, n=16. The protocol: as §1, with “According” for “96 SPF-grade SD rats were chosen in half female and half male with an average weight of 176-220 g at the beginning of the experiment. According”, “days.” for “days. Erguotou (batch number: 201603092, specification: 2L, place of origin: Beijing Shunxin Agriculture Co., Ltd.) model establishing method: gavage with diluted 56-degree Erguotou twice a day for 60 consecutive days.”
as §2

The subject of assay [5] is hyperlipemia rats. Put plainly: Hyperlipemia rats (high-fat diet), body mass, liver mass, liver index, NASH pathology. In kind it is in vivo, SD rats. As to conditions: positive drug group, 60 d. The protocol: as §3, §4, §5, §6
In assay [6] the test system is IL-1β. Put plainly: Alcoholic fatty liver model, IL-1β in hippocampus tissue (ELISA). Format: in vivo, SD rats. As to conditions: liquor model, 50 mg·kg−1·d−1 ig 60 d, n=16. Here is the method:
as §1, with “According” for “96 SPF-grade SD rats were chosen in half female and half male with an average weight of 176-220 g at the beginning of the experiment. According”, “days.” for “days. Erguotou (batch number: 201603092, specification: 2L, place of origin: Beijing Shunxin Agriculture Co., Ltd.) model establishing method: gavage with diluted 56-degree Erguotou twice a day for 60 consecutive days.”
as §2
In general terms: ELISA stands for enzyme-linked immunosorbent assay.

The next assay has as its system IL-6. Put plainly: LPS-induced inflammatory response in astrocytes, IL-6 release (ELISA). Format: cell-based, Kunming mice. The settings on record: culture supernatant, LPS 1 μg·ml-1 + substance 10 μg·ml-1, 24 h, n=6. An excerpt: (§7) Experiment 9 Inhibition of 5-Methyltetrahydrofolate and Curcumin on LPS-Induced Inflammatory Response in Astrocytes
(§8) The cerebral cortex of Kunming mice at 1˜2 d was taken out under aseptic conditions, washed 3 times with cold PBS after removing residual meninges and blood vessels, prepared into single cell suspension by blowing, centrifuged, the supernatant was discarded, and the precipitant was resuspended in AST basic medium (high-sugar DMEM containing 10% FBS). The suspension was inoculated into a culture flask coated with poly-L-lysine (0.1 mg/ml), and cultured in a CO2 incubator. After 24 h, tissue debris and non-adherent cells were removed by replacing the medium. Afterwards, the medium was replaced every 3 days until the cells reached 80% confluence, then the flask was placed on a constant temperature rotary shaker, where the suspension was centrifuged at 180 r/min, 37° C. for 18 h to remove oligodendrocytes and microglia from the upper layer. Then trypsin digestion was used for subculture. […]
(§9) LPS (1 μg·ml-1), LPS (1 μg·ml-1)+curcumin (10 μg·ml-1), LPS (1 μg·ml-1)+5-MTHF-Ca (10 μg·ml-1); experimental group: LPS (1 μg·ml-1)+curcumin (5 μg·ml-1)+5-MTHF-Ca (5 μg·ml-1). After 24 h, the culture supernatant was collected, and the cytokines IL-6, IL-1β and TNF-α were detected by ELISA.

The subject of assay [7] is TNF-α. The experiment in a line: LPS-induced inflammatory response in astrocytes, TNF-α release (ELISA). Format: cell-based, Kunming mice. The settings on record: culture supernatant, LPS 1 μg·ml-1 + substance 10 μg·ml-1, 24 h, n=6.
From the text: as §7, §8, §9

Assay [8] relates to IL-1β. Put plainly: LPS-induced inflammatory response in astrocytes, IL-1β release (ELISA). As to conditions: culture supernatant, LPS 1 μg·ml-1 + substance 10 μg·ml-1, 24 h, n=6. In kind it is cell-based, Kunming mice.
From the text: as §7, §8, §9

[9] abbreviates: day 61, liquor model, 50 mg·kg−1·d−1 ig 60 d, n=16.
[10] abbreviates: serum day 61, liquor model, 50 mg·kg−1·d−1 ig 60 d, n=16.

As to `COC(=O)c1cc(OC)c2c(c1-c1c(CO)cc(OC)c3c1OCO3)OCO2` [bicyclol, reference compound], the MDA in assay [1] (setting [9]) is listed as 70.41 ± 20.33 nmol/mgprot; with hyperlipemia rats [2], 72.39 ± 19.23 nmol/mgprot. The SOD in [1] (setting [9]) is recorded as 167.47 ± 18.91^ U/mgprot; in the assay with hyperlipemia rats [2], 157.41 ± 16.45^ U/mgprot. Further, the “Pathological examination of liver” value in [1] (liquor model, positive drug group 50 mg·Kg−1 ig 60 d) is “no hyperplasia of interstitial connective tissue and fatty degeneration of hepatocytes”. Moreover, the TC in assay [1] (setting [10]) is recorded as 1.45 ± 0.43 mmol/L; in the assay on hyperlipemia rats [2], 1.45 ± 0.63 mmol/L. Also, the TG was 1.03 ± 0.34 mmol/L in [1] (setting [10]) and 1.23 ± 0.35 mmol/L in the assay with hyperlipemia rats [2]. Further, the Body weight in [3] (Week 0, n=16) stood at 188.19 g; in assay [3] (Week 1, n=16) it was 211.95 g; in assay [3] (Week 2, n=16) it was 279.31 g; in [3] (Week 3, n=16) it was 292.58 g; in assay [3] (Week 4, n=16), 317.80 g; in assay [3] (Week 5, n=16), 313.19 g. The Body weight in [3] (Week 6, n=16) amounted to 333.57 g; in assay [3] (Week 7, n=16) it was 360.01 g; in [3] (Week 8, n=16), 380.37 g. Further, the “TNF-α in hippocampus tissue” value with TNF-α [4] was 286.32 ± 43.79.* μg · g^−1 prot. The compound further had a Body mass in the assay on hyperlipemia rats [5] (8 cases) of 453.8 ± 34.7 g. In the assay with hyperlipemia rats [5] (8 cases), this compound showed a Liver index of 3.2 ± 0.4. In the assay with hyperlipemia rats [5] (8 cases), the Liver mass came out at 14.6 ± 4.5 g. For the same compound, in the assay on hyperlipemia rats [5] (of 8 cases), the “Pathological state (NASH)” value is 2 cases. Also, the “IL-1β in hippocampus tissue” value in the assay on IL-1β [6] came out at 73.93 ± 9.37 μg · g^−1 prot.
Consider `COc1cc(/C=C/C(=O)CC(=O)/C=C/c2ccc(O)c(OC)c2)ccc1O` [Cur, curcumin, reference compound], for which, in the assay with IL-6, the IL-6 worked out at 1003.97 ± 60.33 pg/mL. In addition, the TNF-α in the assay on TNF-α [7] came out at 492.32 ± 8.92 pg/mL. Also, the IL-1β in the assay on IL-1β [8] stood at 742.12 ± 10.33 pg/mL.
